According to PubChem BioAssay AID330 (DTP/NCI, 2004):
Several values for one entry are separate records, joined by “and”; a condition that tells them apart may be missing. Equal values may be shown once. Toxic doses and inconclusive results are not listed.

Tested on: P388 leukemia ip, CD2F1 mice, survival T/C
Assay: NCI In Vivo Anticancer Drug Screen. Data for tumor model P388 Leukemia (intraperitoneal) in CD2F1 (CDF1) mice
Conditions: endpoint: median survival time, higher = longer survival
In short: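 Mice carrying the transplanted tumor received test compound or vehicle. Survival was recorded in each group, and the value is the treated-group measurement divided by that of the vehicle-treated control group.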

[1] = dose: 25.0 mg/kg/injection, schedule: Q01DX005 (ip), vehicle: Klucel (hydroxypropylcellulose) (HPC)
[2] = dose: 50.0 mg/kg/injection, schedule: Q01DX005 (ip), vehicle: saline
[3] = dose: 100.0 mg/kg/injection, schedule: Q01DX005 (ip), vehicle: saline
[4] = dose: 200.0 mg/kg/injection, schedule: Q01DX005 (ip), vehicle: saline
[5] = dose: 50.0 mg/kg/injection, schedule: Q01DX005 (ip), vehicle: Klucel (hydroxypropylcellulose) (HPC)
[6] = dose: 100.0 mg/kg/injection, schedule: Q01DX005 (ip), vehicle: Klucel (hydroxypropylcellulose) (HPC)
[7] = dose: 200.0 mg/kg/injection, schedule: Q01DX005 (ip), vehicle: Klucel (hydroxypropylcellulose) (HPC)
[8] = dose: 60.0 mg/kg/injection, schedule: Q01DX005 (ip), vehicle: saline with Tween-80
[9] = dose: 120.0 mg/kg/injection, schedule: Q01DX005 (ip), vehicle: saline with Tween-80
[10] = dose: 240.0 mg/kg/injection, schedule: Q01DX005 (ip), vehicle: saline with Tween-80
[11] = dose: 100.0 mg/kg/injection, schedule: Q04DX003 (ip), vehicle: saline with Tween-80
[12] = dose: 200.0 mg/kg/injection, schedule: Q04DX003 (ip), vehicle: saline with Tween-80
[13] = dose: 50.0 mg/kg/injection, schedule: Q04DX003 (ip), vehicle: saline with Tween-80
[14] = dose: 200.0 mg/kg/injection, schedule: Q01DX005 (ip), vehicle: saline with Tween-80
[15] = dose: 60.0 mg/kg/injection, schedule: Q01DX005 (ip), vehicle: Klucel (hydroxypropylcellulose) (HPC)
[16] = dose: 120.0 mg/kg/injection, schedule: Q01DX005 (ip), vehicle: Klucel (hydroxypropylcellulose) (HPC)
[17] = dose: 240.0 mg/kg/injection, schedule: Q01DX005 (ip), vehicle: Klucel (hydroxypropylcellulose) (HPC)
[18] = dose: 12.5 mg/kg/injection, schedule: Q01DX009 (ip), vehicle: saline with Tween-80
[19] = dose: 25.0 mg/kg/injection, schedule: Q01DX009 (ip), vehicle: saline with Tween-80
[20] = dose: 50.0 mg/kg/injection, schedule: Q01DX009 (ip), vehicle: saline with Tween-80

Cc1cc(O)c2c(c1)C(=O)c1c(c(O)cc(O)c1-c1c(O)cc(O)c3c1C(=O)c1cc(C)cc(O)c1C3=O)C2=O
T/C (dose: 3.0 mg/kg/injection, schedule: Q01DX005 (ip), vehicle: Klucel (hydroxypropylcellulose) (HPC)): 95 % of control
T/C (dose: 6.0 mg/kg/injection, schedule: Q01DX005 (ip), vehicle: Klucel (hydroxypropylcellulose) (HPC)): 99 % of control
T/C (dose: 12.0 mg/kg/injection, schedule: Q01DX005 (ip), vehicle: Klucel (hydroxypropylcellulose) (HPC)): 96 % of control
T/C (dose: 12.5 mg/kg/injection, schedule: Q01DX005 (ip), vehicle: Klucel (hydroxypropylcellulose) (HPC)): 91 % of control
T/C (dose: 24.0 mg/kg/injection, schedule: Q01DX005 (ip), vehicle: Klucel (hydroxypropylcellulose) (HPC)): 93 % of control
T/C [1]: 93 % of control

OCC12CC=CCC1C1CC=CCC1O2 (centres undefined)
T/C [2]: 101 % of control
T/C [3]: 99 % of control
T/C [4]: 103 % of control

Nc1[nH]c(=S)nc2nc3c4ccccc4c4ccccc4c3nc12
T/C [5]: 91 % of control
T/C [6]: 90 % of control
T/C [7]: 91 % of control

OCc1c(-c2ccc(Cl)cc2)c(-c2ccccc2)c2n1CCC2
T/C [5]: 94 % of control
T/C [6]: 91 % of control
T/C [7]: 92 % of control

C[N+]1=C(c2ccc[nH]2)CC(C(=O)[O-])CC1 (centres undefined)
T/C [8]: 100 % of control
T/C [9]: 106 % of control
T/C [10]: 102 % of control

N#CC(=O)Nc1ccc(Cl)c(Cl)c1
T/C (dose: 7.5 mg/kg/injection, schedule: Q01DX005 (ip), vehicle: Klucel (hydroxypropylcellulose) (HPC)): 104 % of control
T/C (dose: 15.0 mg/kg/injection, schedule: Q01DX005 (ip), vehicle: Klucel (hydroxypropylcellulose) (HPC)): 99 % of control
T/C (dose: 30.0 mg/kg/injection, schedule: Q01DX005 (ip), vehicle: Klucel (hydroxypropylcellulose) (HPC)): 100 % of control

CC(=O)c1ccc2c3c(cccc13)C(=O)OC2=O
T/C [1]: 100 % of control
T/C [5]: 100 % of control and 101 % of control
T/C [6]: 102 % of control and 97 % of control
T/C [7]: 104 % of control

CC(=O)CC(=O)OCc1ccccc1
T/C [11]: 100 % of control
T/C [12]: 100 % of control
T/C (dose: 400.0 mg/kg/injection, schedule: Q04DX003 (ip), vehicle: saline with Tween-80): 100 % of control

C=C(C)CC1(CC)C(=O)NC(=S)NC1=O
T/C [13]: 104 % of control
T/C [11]: 104 % of control
T/C [12]: 86 % of control

CNC(=O)OCC1(OC(=O)NC)OC(COC(=O)NC)(OC(=O)NC)C(OC(=O)NC)C1OC(=O)NC (centres undefined)
T/C [2]: 104 % of control
T/C [3]: 91 % of control
T/C [4]: 101 % of control

CC1CN(Cc2ccccc2)CCC1N1CCCC1 (centres undefined)
T/C (dose: 50.0 mg/kg/injection, schedule: Q01DX005 (ip), vehicle: saline with Tween-80): 111 % of control
T/C (dose: 100.0 mg/kg/injection, schedule: Q01DX005 (ip), vehicle: saline with Tween-80): 107 % of control
T/C [14]: 109 % of control

Clc1cccc(-c2nc(N3CCOCC3)c3c4c(sc3n2)CCC4)c1
T/C [15]: 101 % of control
T/C [16]: 97 % of control
T/C [17]: 97 % of control

CCN(CC)P(=O)(N1CC1)N1CC1
T/C (dose: 6.25 mg/kg/injection, schedule: Q01DX009 (ip), vehicle: saline): 169 % of control
T/C (dose: 12.5 mg/kg/injection, schedule: Q01DX009 (ip), vehicle: saline): 243 % of control
T/C (dose: 12.5 mg/kg/injection, schedule: Q04DX003 (ip), vehicle: saline): 175 % of control
T/C (dose: 25.0 mg/kg/injection, schedule: Q01DX009 (ip), vehicle: saline): 86 % of control
T/C (dose: 25.0 mg/kg/injection, schedule: Q04DX003 (ip), vehicle: saline): 245 % of control

COC(=O)/C=C/COc1ccccc1C(=O)NCc1ccc([N+](=O)[O-])cc1
T/C (dose: 100.0 mg/kg/injection, schedule: Q04DX003 (ip), vehicle: Klucel (hydroxypropylcellulose) (HPC)): 109 % of control
T/C (dose: 200.0 mg/kg/injection, schedule: Q04DX003 (ip), vehicle: Klucel (hydroxypropylcellulose) (HPC)): 108 % of control
T/C (dose: 400.0 mg/kg/injection, schedule: Q04DX003 (ip), vehicle: Klucel (hydroxypropylcellulose) (HPC)): 109 % of control

CC(N)(CO)C(=O)O (centres undefined)
T/C (dose: 100.0 mg/kg/injection, schedule: Q04DX003 (ip), vehicle: saline): 104 % of control
T/C (dose: 200.0 mg/kg/injection, schedule: Q04DX003 (ip), vehicle: saline): 90 % of control
T/C (dose: 400.0 mg/kg/injection, schedule: Q04DX003 (ip), vehicle: saline): 100 % of control

CC(=O)OC1C=CCC2C(=O)C34CC=CC(OC(C)=O)C3(C(=O)c3ccccc3C4=O)C(=O)C12 (centres undefined)
T/C (dose: 6.25 mg/kg/injection, schedule: Q01DX009 (ip), vehicle: saline with Tween-80): 103 % of control
T/C [18]: 101 % of control
T/C [19]: 120 % of control
T/C [20]: 116 % of control
T/C (dose: 100.0 mg/kg/injection, schedule: Q01DX009 (ip), vehicle: saline with Tween-80): 116 % of control

CC1NNC(=S)NN1
T/C (dose: 15.0 mg/kg/injection, schedule: Q01DX005 (ip), vehicle: saline with Tween-80): 101 % of control
T/C (dose: 30.0 mg/kg/injection, schedule: Q01DX005 (ip), vehicle: saline with Tween-80): 101 % of control

COc1ccc(C(c2cc(C(C)(C)C)cc(C(C)(C)C)c2O)N(C)C)cc1 (centres undefined)
T/C (dose: 50.0 mg/kg/injection, schedule: Q01DX005 (ip), vehicle: distilled water + alcohol): 103 % of control
T/C (dose: 100.0 mg/kg/injection, schedule: Q01DX005 (ip), vehicle: distilled water + alcohol): 103 % of control
T/C (dose: 200.0 mg/kg/injection, schedule: Q01DX005 (ip), vehicle: distilled water + alcohol): 105 % of control

O=S(=O)(Nc1ccc(Cl)cc1C(F)(F)F)c1ccc(F)cc1
T/C [8]: 100 % of control
T/C [9]: 110 % of control

CCN(CC)c1ccc(C(C#N)(c2ccc(N(CC)Cc3cccc(S(=O)(=O)O)c3)cc2)c2ccc(N(CC)Cc3cccc(S(=O)(=O)O)c3)cc2)cc1
T/C (dose: 72.0 mg/kg/injection, schedule: Q01DX001 (ip), vehicle: saline with Tween-80): 98 % of control and 102 % of control
T/C (dose: 72.0 mg/kg/injection, schedule: Q01DX005 (ip), vehicle: saline with Tween-80): 99 % of control
T/C (dose: 120.0 mg/kg/injection, schedule: Q01DX001 (ip), vehicle: saline with Tween-80): 104 % of control and 92 % of control
T/C [9]: 92 % of control
T/C (dose: 200.0 mg/kg/injection, schedule: Q01DX001 (ip), vehicle: saline with Tween-80): 90 % of control and 96 % of control
T/C [14]: 98 % of control

O=c1c2ccccc2c2ccccc2c(=O)n1-c1cc2c3ccccc3ccc2c2ccccc12
T/C [15]: 100 % of control
T/C [16]: 99 % of control
T/C [17]: 95 % of control

CC1(C)CN(C(C)(C)C)COC1OC1OCN(C(C)(C)C)CC1(C)C (centres undefined)
T/C (dose: 37.5 mg/kg/injection, schedule: Q01DX009 (ip), vehicle: saline with Tween-80): 118 % of control
T/C (dose: 75.0 mg/kg/injection, schedule: Q01DX009 (ip), vehicle: saline with Tween-80): 109 % of control
T/C (dose: 150.0 mg/kg/injection, schedule: Q01DX009 (ip), vehicle: saline with Tween-80): 119 % of control

COc1ccc(OC)c(NC(=O)CCCC(=O)C(C#N)c2nc3ccccc3s2)c1 (centres undefined)
T/C [8]: 105 % of control
T/C [9]: 108 % of control
T/C [10]: 100 % of control

c1ccc(CCN2COc3c(ccc4cccnc34)C2)cc1
T/C (dose: 25.0 mg/kg/injection, schedule: Q04DX003 (ip), vehicle: saline with Tween-80): 110 % of control
T/C [13]: 110 % of control
T/C [11]: 100 % of control

[B-][N+](C)(C)Cc1ccccc1
T/C [18]: 90 % of control
T/C [19]: 90 % of control
T/C [20]: 109 % of control
